The text below walks through data of BindingDB's records for doi:10.1016/j.bmcl.2007.12.040 (Merck Research Laboratories, 2008).

What all share (assay): Akt Inhibition Assay
Details in all cases: pH 7.5; 22 °C

Experiment [1] deals with RAC-beta serine/threonine-protein kinase (Homo sapiens, UniProt P31751). The source says:
(§1) Purified recombinant human Akt kinase was monitored for kinase activity in the presence or absence of inhibitors in a 96-well format. Detection was done by homogeneous time-resolved fluorescence (HTRF) using a europium-labeled Phospho (S21)-GSK3a antibody, and streptavidin-linked XL665 fluorophore which binds to the biotin moiety on the substrate peptide.

The target of experiment [2] is RAC-alpha serine/threonine-protein kinase (Homo sapiens, UniProt P31749).
Sequence of RAC-alpha serine/threonine-protein kinase (P31749 whole entry): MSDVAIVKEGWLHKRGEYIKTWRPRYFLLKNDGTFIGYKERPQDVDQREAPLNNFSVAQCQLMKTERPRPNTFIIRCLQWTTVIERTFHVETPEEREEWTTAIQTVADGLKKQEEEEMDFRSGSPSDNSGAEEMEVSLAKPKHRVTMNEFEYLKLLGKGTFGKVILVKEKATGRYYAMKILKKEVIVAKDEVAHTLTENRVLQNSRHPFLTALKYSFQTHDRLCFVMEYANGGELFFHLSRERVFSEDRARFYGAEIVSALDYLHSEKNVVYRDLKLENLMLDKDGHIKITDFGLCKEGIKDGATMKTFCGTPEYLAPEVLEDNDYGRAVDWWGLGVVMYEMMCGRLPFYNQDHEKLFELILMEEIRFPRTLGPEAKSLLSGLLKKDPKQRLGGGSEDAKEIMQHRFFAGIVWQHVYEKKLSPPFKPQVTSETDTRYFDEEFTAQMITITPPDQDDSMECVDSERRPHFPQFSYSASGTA
Excerpt: as §1

Experiment [3] has as its target RAC-gamma serine/threonine-protein kinase (Homo sapiens, UniProt Q9Y243).
Excerpt: as §1

Sequence of RAC-beta serine/threonine-protein kinase (P31751 whole entry): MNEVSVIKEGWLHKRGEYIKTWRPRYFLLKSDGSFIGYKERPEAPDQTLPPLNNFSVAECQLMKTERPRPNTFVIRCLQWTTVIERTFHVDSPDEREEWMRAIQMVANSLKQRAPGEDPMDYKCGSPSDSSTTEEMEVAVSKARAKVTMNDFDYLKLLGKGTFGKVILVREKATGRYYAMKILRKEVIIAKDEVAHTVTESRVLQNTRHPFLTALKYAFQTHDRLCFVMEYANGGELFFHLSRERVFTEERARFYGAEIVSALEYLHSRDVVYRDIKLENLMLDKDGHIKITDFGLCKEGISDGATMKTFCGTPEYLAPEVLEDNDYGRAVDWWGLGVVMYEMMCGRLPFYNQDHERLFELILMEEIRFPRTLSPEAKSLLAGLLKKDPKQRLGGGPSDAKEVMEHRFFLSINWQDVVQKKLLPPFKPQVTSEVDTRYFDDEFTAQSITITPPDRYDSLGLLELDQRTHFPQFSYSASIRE
Sequence of RAC-gamma serine/threonine-protein kinase (Q9Y243 whole entry): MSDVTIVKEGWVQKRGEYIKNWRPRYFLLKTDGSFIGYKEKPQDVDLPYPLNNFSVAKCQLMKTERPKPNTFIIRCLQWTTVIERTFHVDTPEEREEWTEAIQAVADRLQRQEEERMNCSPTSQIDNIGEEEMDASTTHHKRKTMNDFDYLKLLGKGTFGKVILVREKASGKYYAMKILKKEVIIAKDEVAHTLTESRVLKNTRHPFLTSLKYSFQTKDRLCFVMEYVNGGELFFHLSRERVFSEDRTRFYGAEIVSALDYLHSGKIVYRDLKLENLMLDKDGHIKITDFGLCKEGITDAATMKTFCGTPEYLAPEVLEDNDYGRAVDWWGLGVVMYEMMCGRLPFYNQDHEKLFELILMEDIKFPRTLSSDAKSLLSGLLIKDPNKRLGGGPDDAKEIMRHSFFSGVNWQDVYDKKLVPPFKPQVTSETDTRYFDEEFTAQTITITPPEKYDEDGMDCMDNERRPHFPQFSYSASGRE

`Nc1nnc(-c2cnc(-c3ccc(CN4CCC(c5cc(-c6ccccn6)[nH]n5)CC4)cc3)c(-c3ccccc3)c2)s1` [5-{5-phenyl-6-[4-({4-[5-(pyridin-2-yl)-1H-pyrazol-3-yl]piperidin-1-yl}methyl)phenyl]pyridin-3-yl}-1,3,4-thiadiazol-2-amine]: the IC50 was determined as 28 nM in experiment [1] and 95 nM in experiment [2].

Turning to `Nc1nnc(-c2cnc(-c3ccc(CN4CCC(c5cc(-c6ccncc6)[nH]n5)CC4)cc3)c(-c3ccccc3)c2)s1` [5-{5-phenyl-6-[4-({4-[5-(pyridin-4-yl)-1H-pyrazol-3-yl]piperidin-1-yl}methyl)phenyl]pyridin-3-yl}-1,3,4-thiadiazol-2-amine], the IC50 is 38 nM in experiment [1] and 123 nM in experiment [2].

`Nc1ncnc2c1cnn2C1CCN(Cc2ccc(-c3ncc(-c4ncccn4)cc3-c3ccccc3)cc2)CC1` [1-[1-({4-[3-phenyl-5-(pyrimidin-2-yl)pyridin-2-yl]phenyl}methyl)piperidin-4-yl]-1H-pyrazolo[3,4-d]pyrimidin-4-amine]: the IC50 in experiment [1] amounted to 62 nM; in experiment [2] it was 306 nM.

For the compound `Nc1nnc(-c2cnc(-c3ccc(CN4CCC(c5n[nH]c(-c6ccccn6)n5)CC4)cc3)c(-c3ccccc3)c2)s1` [5-{5-phenyl-6-[4-({4-[5-(pyridin-2-yl)-1H-1,2,4-triazol-3-yl]piperidin-1-yl}methyl)phenyl]pyridin-3-yl}-1,3,4-thiadiazol-2-amine], the IC50 in experiment [1] was determined as 22 nM; in experiment [2], 85 nM.

Regarding `Nc1nnc(-c2cnc(-c3ccc(CN4CCC(n5cc(-c6ccccn6)cn5)CC4)cc3)c(-c3ccccc3)c2)s1` [5-{5-phenyl-6-[4-({4-[4-(pyridin-2-yl)-1H-pyrazol-1-yl]piperidin-1-yl}methyl)phenyl]pyridin-3-yl}-1,3,4-thiadiazol-2-amine], the IC50 came out at 90 nM in experiment [1] and 214 nM in experiment [2].

Consider `Nc1nnc(-c2cnc(-c3ccc(CN4CCC(n5cc(-c6cnccn6)cn5)CC4)cc3)c(-c3ccccc3)c2)s1` [5-{5-phenyl-6-[4-({4-[4-(pyrazin-2-yl)-1H-pyrazol-1-yl]piperidin-1-yl}methyl)phenyl]pyridin-3-yl}-1,3,4-thiadiazol-2-amine], for which the values for the IC50 in experiment [1] and in experiment [2] were 51 nM and 172 nM, respectively.

Regarding `Nc1nnc(-c2cnc(-c3ccc(CN4CCC(n5ncc6c(N)ncnc65)CC4)cc3)c(-c3ccccc3)c2)s1` [5-(6-{4-[(4-{4-amino-1H-pyrazolo[3,4-d]pyrimidin-1-yl}piperidin-1-yl)methyl]phenyl}-5-phenylpyridin-3-yl)-1,3,4-thiadiazol-2-amine], the IC50 stood at 22 nM in experiment [1] and 126 nM in experiment [2].

In the case of `Nc1ncnc2c1ncn2C1CCN(Cc2ccc(-c3ncc(-c4nnn[nH]4)cc3-c3ccccc3)cc2)CC1` [9-[1-({4-[3-phenyl-5-(1H-1,2,3,4-tetrazol-5-yl)pyridin-2-yl]phenyl}methyl)piperidin-4-yl]-9H-purin-6-amine], the IC50 in experiment [1] was 105 nM; in experiment [2] it was 210 nM; in experiment [3] it was more than 50000 nM.

With `Nc1ncnc2c1cnn2C1CCN(Cc2ccc(-c3ncc(-c4nnc[nH]4)cc3-c3ccccc3)cc2)CC1` [1-[1-({4-[3-phenyl-5-(1H-1,2,4-triazol-3-yl)pyridin-2-yl]phenyl}methyl)piperidin-4-yl]-1H-pyrazolo[3,4-d]pyrimidin-4-amine], the IC50 in experiment [1] is 101 nM; in experiment [2], 182 nM.

Take `Nc1ncnc2c1cnn2C1CCN(Cc2ccc(-c3ncc(-c4nccs4)cc3-c3ccccc3)cc2)CC1` [1-[1-({4-[3-phenyl-5-(1,3-thiazol-2-yl)pyridin-2-yl]phenyl}methyl)piperidin-4-yl]-1H-pyrazolo[3,4-d]pyrimidin-4-amine]: the IC50 in experiment [1] was found to be 64 nM; in experiment [2], 264 nM.

As to `Nc1ncnc2c1cnn2C1CCN(Cc2ccc(-c3ncc(-c4ncon4)cc3-c3ccccc3)cc2)CC1` [1-[1-({4-[5-(1,2,4-oxadiazol-3-yl)-3-phenylpyridin-2-yl]phenyl}methyl)piperidin-4-yl]-1H-pyrazolo[3,4-d]pyrimidin-4-amine], the figures for the IC50 in experiment [1] and in experiment [2] were 121 nM and 180 nM, respectively.

In the case of `Nc1nnc(-c2cnc(-c3ccc(CN4CCC(n5c(=O)[nH]c6ncccc65)CC4)cc3)c(-c3ccccc3)c2)s1` [1-[1-({4-[5-(5-amino-1,3,4-thiadiazol-2-yl)-3-phenylpyridin-2-yl]phenyl}methyl)piperidin-4-yl]-1H,2H,3H-imidazo[4,5-b]pyridin-2-one], the results for the IC50 in experiment [1] and in experiment [2] were 73 nM and 434 nM, respectively.

Consider `Nc1nnc(-c2cnc(-c3ccc(CNCCC(=O)c4ccccc4N)cc3)c(-c3ccccc3)c2)s1` [3-[({4-[5-(5-amino-1,3,4-thiadiazol-2-yl)-3-phenylpyridin-2-yl]phenyl}methyl)amino]-1-(2-aminophenyl)propan-1-one], for which the IC50 in experiment [1] was 30 nM; in experiment [2], 114 nM.

As for `Nc1ncnc2c1cnn2C1CCN(Cc2ccc(-c3ncc(-c4ccccn4)cc3-c3ccccc3)cc2)CC1` [1-[1-({4-[3-phenyl-5-(pyridin-2-yl)pyridin-2-yl]phenyl}methyl)piperidin-4-yl]-1H-pyrazolo[3,4-d]pyrimidin-4-amine], the figures for the IC50 in experiment [1] and in experiment [2] were 370 nM and 1630 nM, respectively.

One may read the IC50 as the concentration that inhibits the measured activity by half. The low end stands for inhibition by little substance, the high end for a need for much substance.
